Test results reported in PMC9481151, “Discovery of new symmetrical and asymmetrical nitrile-containing 1,4-dihydropyridine derivatives as dual kinases and P-glycoprotein inhibitors: synthesis, in vitro assays, and in silico studies” (Journal of Enzyme Inhibition and Medicinal Chemistry, 2022).

How the values were obtained:
[1] = system: CCRF-CEM; test: NCI single dose (10 µM) SRB screen; assay type: cell-based, human; conditions: leukaemia, 48 h
[2] = system: HL-60(TB); test: NCI single dose (10 µM) SRB screen; assay type: cell-based, human; conditions: leukaemia, 48 h
[3] = system: K-562; test: NCI single dose (10 µM) SRB screen; assay type: cell-based, human; conditions: leukaemia, 48 h
[4] = system: MOLT-4; test: NCI single dose (10 µM) SRB screen; assay type: cell-based, human; conditions: leukaemia, 48 h
[5] = system: RPMI-8226; test: NCI single dose (10 µM) SRB screen; assay type: cell-based, human; conditions: leukaemia, 48 h
[6] = system: SR; test: NCI single dose (10 µM) SRB screen; assay type: cell-based, human; conditions: leukaemia, 48 h
[7] = system: A549/ATCC; test: NCI single dose (10 µM) SRB screen; assay type: cell-based, human; conditions: non-small cell lung cancer, 48 h
[8] = system: EKVX; test: NCI single dose (10 µM) SRB screen; assay type: cell-based, human; conditions: non-small cell lung cancer, 48 h
[9] = system: HOP-62; test: NCI single dose (10 µM) SRB screen; assay type: cell-based, human; conditions: non-small cell lung cancer, 48 h
[10] = system: HOP-92; test: NCI single dose (10 µM) SRB screen; assay type: cell-based, human; conditions: non-small cell lung cancer, 48 h
[11] = system: NCI-H226; test: NCI single dose (10 µM) SRB screen; assay type: cell-based, human; conditions: non-small cell lung cancer, 48 h
[12] = system: NCI-H23; test: NCI single dose (10 µM) SRB screen; assay type: cell-based, human; conditions: non-small cell lung cancer, 48 h
[13] = system: NCI-H322M; test: NCI single dose (10 µM) SRB screen; assay type: cell-based; conditions: non-small cell lung cancer, 48 h
[14] = system: NCI-H460; test: NCI single dose (10 µM) SRB screen; assay type: cell-based, human; conditions: non-small cell lung cancer, 48 h
[15] = system: NCI-H522; test: NCI single dose (10 µM) SRB screen; assay type: cell-based, human; conditions: non-small cell lung cancer, 48 h
[16] = system: COLO 205; test: NCI single dose (10 µM) SRB screen; assay type: cell-based, human; conditions: colon cancer, 48 h
[17] = system: HCC-2998; test: NCI single dose (10 µM) SRB screen; assay type: cell-based, human; conditions: colon cancer, 48 h
[18] = system: HCT-116; test: NCI single dose (10 µM) SRB screen; assay type: cell-based, human; conditions: colon cancer, 48 h
[19] = system: HCT-15; test: NCI single dose (10 µM) SRB screen; assay type: cell-based, human; conditions: colon cancer, 48 h
[20] = system: HT29; test: NCI single dose (10 µM) SRB screen; assay type: cell-based, human; conditions: colon cancer, 48 h
[21] = system: KM12; test: NCI single dose (10 µM) SRB screen; assay type: cell-based, human; conditions: colon cancer, 48 h
[22] = system: SW-620; test: NCI single dose (10 µM) SRB screen; assay type: cell-based, human; conditions: colon cancer, 48 h
[23] = system: SF-268; test: NCI single dose (10 µM) SRB screen; assay type: cell-based, human; conditions: CNS cancer, 48 h
[24] = system: SF-295; test: NCI single dose (10 µM) SRB screen; assay type: cell-based, human; conditions: CNS cancer, 48 h
[25] = system: SF-539; test: NCI single dose (10 µM) SRB screen; assay type: cell-based, human; conditions: CNS cancer, 48 h
[26] = system: SNB-19; test: NCI single dose (10 µM) SRB screen; assay type: cell-based, human; conditions: CNS cancer, 48 h
[27] = system: SNB-75; test: NCI single dose (10 µM) SRB screen; assay type: cell-based, human; conditions: CNS cancer, 48 h
[28] = system: U251; test: NCI single dose (10 µM) SRB screen; assay type: cell-based, human; conditions: CNS cancer, 48 h
[29] = system: LOX IMVI; test: NCI single dose (10 µM) SRB screen; assay type: cell-based, human; conditions: melanoma, 48 h
[30] = system: MALME-3M; test: NCI single dose (10 µM) SRB screen; assay type: cell-based, human; conditions: melanoma, 48 h
[31] = system: M14; test: NCI single dose (10 µM) SRB screen; assay type: cell-based, human; conditions: melanoma, 48 h
[32] = system: MDA-MB-435; test: NCI single dose (10 µM) SRB screen; assay type: cell-based, human; conditions: melanoma, 48 h
[33] = system: SK-MEL-2; test: NCI single dose (10 µM) SRB screen; assay type: cell-based, human; conditions: melanoma, 48 h
[34] = system: SK-MEL-28; test: NCI single dose (10 µM) SRB screen; assay type: cell-based, human; conditions: melanoma, 48 h
[35] = system: SK-MEL-5; test: NCI single dose (10 µM) SRB screen; assay type: cell-based, human; conditions: melanoma, 48 h
[36] = system: UACC-257; test: NCI single dose (10 µM) SRB screen; assay type: cell-based, human; conditions: melanoma, 48 h
[37] = system: UACC-62; test: NCI single dose (10 µM) SRB screen; assay type: cell-based, human; conditions: melanoma, 48 h
[38] = system: IGROV1; test: NCI single dose (10 µM) SRB screen; assay type: cell-based, human; conditions: ovarian cancer, 48 h
[39] = system: OVCAR-3; test: NCI single dose (10 µM) SRB screen; assay type: cell-based, human; conditions: ovarian cancer, 48 h
[40] = system: OVCAR-4; test: NCI single dose (10 µM) SRB screen; assay type: cell-based, human; conditions: ovarian cancer, 48 h
[41] = system: OVCAR-5; test: NCI single dose (10 µM) SRB screen; assay type: cell-based, human; conditions: ovarian cancer, 48 h
[42] = system: OVCAR-8; test: NCI single dose (10 µM) SRB screen; assay type: cell-based, human; conditions: ovarian cancer, 48 h
[43] = system: NCI/ADR-RES; test: NCI single dose (10 µM) SRB screen; assay type: cell-based, human; conditions: ovarian cancer, 48 h
[44] = system: SK-OV-3; test: NCI single dose (10 µM) SRB screen; assay type: cell-based, human; conditions: ovarian cancer, 48 h
[45] = system: 786-0; test: NCI single dose (10 µM) SRB screen; assay type: cell-based, human; conditions: renal cancer, 48 h
[46] = system: A498; test: NCI single dose (10 µM) SRB screen; assay type: cell-based, human; conditions: renal cancer, 48 h
[47] = system: ACHN; test: NCI single dose (10 µM) SRB screen; assay type: cell-based, human; conditions: renal cancer, 48 h
[48] = system: CAKI-1; test: NCI single dose (10 µM) SRB screen; assay type: cell-based, human; conditions: renal cancer, 48 h
[49] = system: RXF 393; test: NCI single dose (10 µM) SRB screen; assay type: cell-based, human; conditions: renal cancer, 48 h
[50] = system: SN12C; test: NCI single dose (10 µM) SRB screen; assay type: cell-based, human; conditions: renal cancer, 48 h
[51] = system: TK-10; test: NCI single dose (10 µM) SRB screen; assay type: cell-based, human; conditions: renal cancer, 48 h
[52] = system: UO-31; test: NCI single dose (10 µM) SRB screen; assay type: cell-based, human; conditions: renal cancer, 48 h
[53] = system: PC-3; test: NCI single dose (10 µM) SRB screen; assay type: cell-based, human; conditions: prostate cancer, 48 h
[54] = system: DU-145; test: NCI single dose (10 µM) SRB screen; assay type: cell-based, human; conditions: prostate cancer, 48 h
[55] = system: MCF7; test: NCI single dose (10 µM) SRB screen; assay type: cell-based, human; conditions: breast cancer, 48 h
[56] = system: MDA-MB-231; test: NCI single dose (10 µM) SRB screen; assay type: cell-based, human; conditions: breast cancer, 48 h
[57] = system: HS578T; test: NCI single dose (10 µM) SRB screen; assay type: cell-based, human; conditions: breast cancer, 48 h
[58] = system: BT-549; test: NCI single dose (10 µM) SRB screen; assay type: cell-based, human; conditions: breast cancer, 48 h
[59] = system: T-47D; test: NCI single dose (10 µM) SRB screen; assay type: cell-based, human; conditions: breast cancer, 48 h
[60] = system: MDA-MB-468; test: NCI single dose (10 µM) SRB screen; assay type: cell-based, human; conditions: breast cancer, 48 h
[61] = system: NCI 60 cancer cell lines; test: NCI single dose (10 µM) SRB screen, mean over panel; assay type: cell-based, human; conditions: mean over 60 cell lines, 48 h
[62] = system: Staphylococcus aureus; test: Agar well diffusion method; conditions: relative to ciprofloxacin
[63] = system: Bacillus subtilis; test: Agar well diffusion method; conditions: relative to ciprofloxacin
[64] = system: Escherichia coli; test: Agar well diffusion method; conditions: relative to ciprofloxacin
[65] = system: Pseudomonas aeruginosa; test: Agar well diffusion method; conditions: relative to ciprofloxacin
[66] = system: Candida albicans; test: Agar well diffusion method; conditions: relative to clotrimazole
[67] = system: Aspergillus flavus; test: Agar well diffusion method; conditions: relative to clotrimazole

melting point: 120 to 121 °C
SMILES: CCOC(=O)C1=C(C)NC(C)=C(C(=O)OCC(C)C)C1c1cccc(C#N)c1 (racemic) [Compound 2i, (±)-3-Ethyl 5-isobutyl 4-(3-cyanophenyl)-2,6-dimethyl-1,4-dihydropyridine-3,5-dicarboxylate]
GI% CCRF-CEM [1]: – (Only GI% ≥ 10 are shown) | GI% HL-60(TB) [2]: – (Only GI% ≥ 10 are shown) | GI% K-562 [3]: 24% | GI% MOLT-4 [4]: 21% | GI% RPMI-8226 [5]: – (Only GI% ≥ 10 are shown) | GI% SR [6]: 23% | GI% A549/ATCC [7]: 10% | GI% EKVX [8]: 29% | GI% HOP-62 [9]: – (Only GI% ≥ 10 are shown) | GI% HOP-92 [10]: 18% | GI% NCI-H226 [11]: 22% | GI% NCI-H23 [12]: 24% | GI% NCI-H322M [13]: – (Only GI% ≥ 10 are shown) | GI% NCI-H460 [14]: – (Only GI% ≥ 10 are shown) | GI% NCI-H522 [15]: 13% | GI% COLO 205 [16]: – (Only GI% ≥ 10 are shown) | GI% HCC-2998 [17]: – (Only GI% ≥ 10 are shown) | GI% HCT-116 [18]: 23% | GI% HCT-15 [19]: 30% | GI% HT29 [20]: – (Only GI% ≥ 10 are shown) | GI% KM12 [21]: – (Only GI% ≥ 10 are shown) | GI% SW-620 [22]: – (Only GI% ≥ 10 are shown) | GI% SF-268 [23]: – (Only GI% ≥ 10 are shown) | GI% SF-295 [24]: 31% | GI% SF-539 [25]: – (Only GI% ≥ 10 are shown) | GI% SNB-19 [26]: – (Only GI% ≥ 10 are shown) | GI% SNB-75 [27]: 18% | GI% U251 [28]: – (Only GI% ≥ 10 are shown) | GI% LOX IMVI [29]: 20% | GI% MALME-3M [30]: – (Only GI% ≥ 10 are shown) | GI% M14 [31]: – (Only GI% ≥ 10 are shown) | GI% MDA-MB-435 [32]: – (Only GI% ≥ 10 are shown) | GI% SK-MEL-2 [33]: – (Only GI% ≥ 10 are shown) | GI% SK-MEL-28 [34]: – (Only GI% ≥ 10 are shown) | GI% SK-MEL-5 [35]: 12% | GI% UACC-257 [36]: – (Only GI% ≥ 10 are shown) | GI% UACC-62 [37]: 27% | GI% IGROV1 [38]: – (Only GI% ≥ 10 are shown) | GI% OVCAR-3 [39]: – (Only GI% ≥ 10 are shown) | GI% OVCAR-4 [40]: 12% | GI% OVCAR-5 [41]: – (Only GI% ≥ 10 are shown) | GI% OVCAR-8 [42]: – (Only GI% ≥ 10 are shown) | GI% NCI/ADR-RES [43]: 22% | GI% SK-OV-3 [44]: – (Only GI% ≥ 10 are shown) | GI% 786-0 [45]: 11% | GI% A498 [46]: – (Only GI% ≥ 10 are shown) | GI% ACHN [47]: – (Only GI% ≥ 10 are shown) | GI% CAKI-1 [48]: 35% | GI% RXF 393 [49]: 30% | GI% SN12C [50]: – (Only GI% ≥ 10 are shown) | GI% TK-10 [51]: – (Only GI% ≥ 10 are shown) | GI% UO-31 [52]: – (Only GI% ≥ 10 are shown) | GI% PC-3 [53]: 29% | GI% DU-145 [54]: – (Only GI% ≥ 10 are shown) | GI% MCF7 [55]: 34% | GI% MDA-MB-231 [56]: – (Only GI% ≥ 10 are shown) | GI% HS578T [57]: 13% | GI% BT-549 [58]: – (Only GI% ≥ 10 are shown) | GI% T-47D [59]: 32% | GI% MDA-MB-468 [60]: 24% | Mean GI% [61]: 9% | % activity index, S. aureus [62]: – (Values below 25 are of limited value and not shown as they refer either to inactive or non-diffusing compounds) | % activity index, B. subtilis [63]: – (Values below 25 are of limited value and not shown as they refer either to inactive or non-diffusing compounds) | % activity index, E. coli [64]: – (Values below 25 are of limited value and not shown as they refer either to inactive or non-diffusing compounds) | % activity index, P. aeruginosa [65]: – (Values below 25 are of limited value and not shown as they refer either to inactive or non-diffusing compounds) | % activity index, C. albicans [66]: – (Values below 25 are of limited value and not shown as they refer either to inactive or non-diffusing compounds) | % activity index, A. flavus [67]: – (Values below 25 are of limited value and not shown as they refer either to inactive or non-diffusing compounds)
